Test system: UCMS mice
Experiment: Morris Water Maze Test (MWMT) in UCMS mice
Format: in vivo, ICR mice
Protocol: Five-week-old male ICR mice (weight: 20-30 g), which were acquired from Nomura Siam International (Pathumwan, Bangkok, Thailand), were maintained at the Animal Unit of the Faculty of Pharmaceutical Sciences, Khon Kaen University. Mice were cared for in accordance with the Guiding Principles for the Care and Use of Animals (NIH Publications No. 80-23, revised in 2011). The facilities sustained a 12 h light/dark cycle, constant temperature (22 ± 2 °C), and humidity (45 ± 2%), with full access to food and drink. The current research was authorized by the Animal Ethics Committee for Use and Care of Khon Kaen University (IACUC-KKU-121/64) Mice in the stress groups received mild stressors for 6 weeks. […] In each trial, the latency to reach the platform (escape latency) and the distance covered were recorded for 5 days. […] After completion of the probe test, the time spent in the target quadrant (Q1) was counted as an index of reference memory.

## vitamin E
100 mg/kg/day oral
  time spent in the target quadrant (MWMT probe, day 6): significantly increased
Three weeks of treatment, days 3, 4 and 5
  escape latency (MWMT training): significantly reduced
